Patent US9216173B2, “2-Pyridyl carboxamide-containing spleen tyrosine kinase (SYK) inhibitors” (Merck Sharp & Dohme Corp., priority 2011, dated 2015)

Tested on: not given
Test: not given
Conditions: phase II clinical trial, allergic rhinitis; cited from earlier work

Structure (SMILES)	efficacy versus placebo
Oc1cccc(Nc2ncc(F)c(Nc3cccc(O)c3)n2)c1 [Example R112]	lack of efficacy

Tested on: PGD2
Test: not given
Conditions: dosed intranasally, phase I/II, allergic rhinitis; cited from earlier work

Structure (SMILES)	PGD2 level	clinical safety
Oc1cccc(Nc2ncc(F)c(Nc3cccc(O)c3)n2)c1 [Example R112]	statistically significant decrease	safe across a range of indicators

Biological target: T1, recombinant human GST-SYK (Homo sapiens, UniProt P43405)
T1 construct: purchased Carna Biosciences 08-176
Test: Homogeneous Time-Resolved Fluorescence (HTRF) assay for the recombinant human Syk enzyme
Format: biochemical
Conditions: GST-hSYK 5 pM, ATP 25 μM, 10-dose titration 10 μM to 0.508 nM; read-out: rhSYK Activity (IC50 rating)
How it was run: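 GST-hSYK fusion phosphorylates a peptide for 45 min at room temperature. Quenched with EDTA buffer containing 2 nM Eu-anti-phosphotyrosine antibody and 70 nM SA-APC. HTRF signal read after 30 min.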

IC50 [nM]	Structure (SMILES)
< 10	Cc1nc(Nc2cc(N[C@@H]3CCCC[C@@H]3N)cnc2C(N)=O)ccc1-c1ccc2c(c1)n(C)c(=O)n2C [Example 3.31, 5-{[(1R,2S)-2-aminocyclohexyl]amino}-3-{[5-(1,3-dimethyl-2-oxo-2,3-dihydro-1H-benzimidazol-5-yl)-6-methylpyridin-2-yl]amino}pyridine-2-carboxamide]
< 10	Cc1nc(Nc2cc(N[C@@H]3CCCC[C@@H]3N)cnc2C(N)=O)ccc1C(N)=O [Example 7, 5-{[(1R,2S)-2-aminocyclohexyl]amino}-3-[(5-carbamoyl-6-methylpyridin-2-yl)amino]pyridine-2-carboxamide]
< 10	CCOCC(N)CNc1cnc(C(N)=O)c(Nc2cc(C)cc(C)n2)c1 (stereo not drawn) [Example 1.70, 5-[(2-amino-3-ethoxypropyl)amino]-3-[(4,6-dimethylpyridin-2-yl)amino]pyridine-2-carboxamide]
< 10	Cc1nc(Nc2cc(N[C@@H]3CCCC[C@@H]3N)cnc2C(N)=O)ccc1-c1ccc(-c2ncco2)cc1 [Example 3.30, 5-{[(1R,2S)-2-aminocyclohexyl]amino}-3-({6-methyl-5-[4-(1,3-oxazol-2-yl)phenyl]pyridin-2-yl}amino)pyridine-2-carboxamide]
< 10	NC(=O)c1ncc(N[C@H]2[C@@H](N)CCCC2(F)F)cc1Nc1ccn(-c2ccc(F)cc2)n1 [Example 1.87, 5-{[(1S,6S)-6-amino-2,2-difluorocyclohexyl]amino}-3-{[1-(4-fluorophenyl)-1H-pyrazol-3-yl]amino}pyridine-2-carboxamide]
< 10	CCc1cccc(Nc2cc(N[C@@H]3CCCC[C@@H]3N)cnc2C(N)=O)n1 [Example 13, 5-{[(1R,2S)-2-aminocyclohexyl]amino}-3-[(6-ethylpyridin-2-yl)amino]pyridine-2-carboxamide]
< 10	Cc1cc(C)nc(Nc2cc(NCCN)cnc2C(N)=O)c1 [Example 1.5, 5-[(2-aminoethyl)amino]-3-[(4,6-dimethylpyridin-2-yl)amino]pyridine-2-carboxamide]
< 10	CC1=CCCc2nc(Nc3cc(N[C@@H]4CCCC[C@@H]4N)cnc3C(N)=O)ccc21 [Example 18, 5-{[(1R,2S)-2-aminocyclohexyl]amino}-3-[(5-methyl-7,8-dihydroquinolin-2-yl)amino]pyridine-2-carboxamide]
< 10	Cc1cc(Nc2cc(N[C@@H]3CCCC[C@@H]3N)cnc2C(N)=O)nc(-c2ccnn2C)c1 [Example 1.112, 5-{[(1R,2S)-2-aminocyclohexyl]amino}-3-{[4-methyl-6-(1-methyl-1H-pyrazol-5-yl)pyridin-2-yl]amino}pyridine-2-carboxamide]
< 10	NC(=O)c1ncc(N[C@@H]2CCCC[C@@H]2N)cc1Nc1cccc(N2CCOCC2)n1 [Example 1.57, 5-{[(1R,2S)-2-aminocyclohexyl]amino}-3-[(6-morpholin-4-ylpyridin-2-yl)amino]pyridine-2-carboxamide]
10 to 100	Cc1cc(C)nc(Nc2cc(N[C@H]3CCC[C@H]3N)cnc2C(N)=O)c1 (single isomer, unassigned) [Example 1.25]
10 to 100	Cc1cc(C)nc(Nc2cc(NC(C)(C)CN)cnc2C(N)=O)c1 [Example 1.19, 5-[(2-amino-1,1-dimethylethyl)amino]-3-[(4,6-dimethylpyridin-2-yl)amino]pyridine-2-carboxamide]
< 10	NC(=O)c1ncc(N[C@@H]2CCCC[C@@H]2N)cc1Nc1ccc2ccccc2n1 [Example 1.9, 5-{[(1R,2S)-2-aminocyclohexyl]amino}-3-(quinolin-2-ylamino)pyridine-2-carboxamide]
< 10	Cc1cc(C)nc(Nc2cc(N[C@@H](CC(C)C)C(N)=O)cnc2C(N)=O)c1 [Example 1.40, N^2-{6-carbamoyl-5-[(4,6-dimethylpyridin-2-yl)amino]pyridin-3-yl}leucinamide]
10 to 100	NC(=O)c1ncc(N[C@@H]2CCCC[C@@H]2N)cc1Nc1ccn(Cc2ccccc2)n1 [Example 1.50, 5-{[(1R,2S)-2-aminocyclohexyl]amino}-3-[(1-benzyl-1H-pyrazol-3-yl)amino]pyridine-2-carboxamide]
10 to 100	Cc1cc(C)nc(Nc2cc(NCC3(N)CCOCC3)cnc2C(N)=O)c1 [Example 1.34, 5-{[(4-aminotetrahydro-2H-pyran-4-yl)methyl]amino}-3-[(4,6-dimethylpyridin-2-yl)amino]pyridine-2-carboxamide]
< 10	Cc1cc2ccsc2c(Nc2cc(N[C@@H]3CCCC[C@@H]3N)cnc2C(N)=O)n1 [Example 1.107, 5-{[(1R,2S)-2-aminocyclohexyl]amino}-3-[(5-methylthieno[2,3-c]pyridin-7-yl)amino]pyridine-2-carboxamide]
< 10	Cc1cc(C)nc(Nc2cc(NC[C@H](C)N)cnc2C(N)=O)c1 [Example 1.3, 5-{[(2S)-2-aminopropyl]amino}-3-[(4,6-dimethylpyridin-2-yl)amino]pyridine-2-carboxamide]
< 10	Cc1nc(Nc2cc(N[C@@H]3CCCC[C@@H]3N)cnc2C(N)=O)ccc1-c1ccc(-n2nccn2)cc1 [Example 3.15, 5-{[(1R,2S)-2-aminocyclohexyl]amino}-3-({6-methyl-5-[4-(2H-1,2,3-triazol-2-yl)phenyl]pyridin-2-yl}amino)pyridine-2-carboxamide]
10 to 100	Cc1cccc(Nc2cc(NCCN)cnc2C(N)=O)n1 [Example 1.4, 5-[(2-aminoethyl)amino]-3-[(6-methylpyridin-2-yl)amino]pyridine-2-carboxamide]
< 10	COc1cc(Nc2cc(N[C@@H]3CCCC[C@@H]3N)cnc2C(N)=O)nc(OC)n1 [Example 1.124, 5-{[(1R,2S)-2-aminocyclohexyl]amino}-3-[(2,6-dimethoxypyrimidin-4-yl)amino]pyridine-2-carboxamide]
< 10	NC(=O)c1ncc(N[C@@H]2CCCC[C@@H]2N)cc1Nc1cccc(-c2ccc3c(c2)OCCO3)n1 [Example 1.16, 5-{[(1R,2S)-2-aminocyclohexyl]amino}-3-{[6-(2,3-dihydro-1,4-benzodioxin-6-yl)pyridin-2-yl]amino}pyridine-2-carboxamide]
< 10	Cc1cc(OCc2ccccc2)cc(Nc2cc(N[C@@H]3CCCC[C@@H]3N)cnc2C(N)=O)n1 [Example 5.3, 5-{[(1R,2S)-2-aminocyclohexyl]amino}-3-{[4-(benzyloxy)-6-methylpyridin-2-yl]amino}pyridine-2-carboxamide]
100 to 1000	COC[C@H](N)CNc1cnc(C(N)=O)c(Nc2ccn(C)n2)c1 [Example 1.98, 5-{[(2R)-2-amino-3-methoxypropyl]amino}-3-[(1-methyl-1H-pyrazol-3-yl)amino]pyridine-2-carboxamide]
